Experimental data: patent US20110039762A1, “TARGETED ANTIMICROBIAL MOIETIES” (C3 JIAN, INC., priority 2009, published 2011)
“Also recorded” adds a separate entry of the source.

Assays:
[1] = tested on: C. jeikeium; assay: Kill or inhibit growth/proliferation; morphology, biofilm and growth disruption (Tables 5, 6); format: cell-based, Corynebacterium jeikeium; set-up: key: A: Peptide aggregates; B: Less hyphal formation; Clumps; Diffuse clumps and small polyps; F: Diffuse growth; H: Thin; I: Growth inhibition; Microcolony formation; Rippled; Small polyps; Thick; W: Halo formation on top, microlonies on bottom; further: test concentration or dose not given here
[2] = tested on: M. luteus; assay: as above; format: cell-based, Micrococcus luteus; set-up: key: A: Peptide aggregates; B: Less hyphal formation; Clumps; Diffuse clumps and small polyps; F: Diffuse growth; H: Thin; I: Growth inhibition; Microcolony formation; Rippled; Small polyps; Thick; W: Halo formation on top, microlonies on bottom; further: test concentration or dose not given here
[3] = tested on: MRSA; assay: as above; format: cell-based, Methicillin-resistant Staphylococcus aureus; set-up: key: A: Peptide aggregates; B: Less hyphal formation; Clumps; Diffuse clumps and small polyps; F: Diffuse growth; H: Thin; I: Growth inhibition; Microcolony formation; Rippled; Small polyps; Thick; W: Halo formation on top, microlonies on bottom; further: test concentration or dose not given here
[4] = tested on: S. pneumoniae; assay: as above; format: cell-based, Streptococcus pneumoniae; set-up: key: A: Peptide aggregates; B: Less hyphal formation; Clumps; Diffuse clumps and small polyps; F: Diffuse growth; H: Thin; I: Growth inhibition; Microcolony formation; Rippled; Small polyps; Thick; W: Halo formation on top, microlonies on bottom; further: test concentration or dose not given here
[5] = tested on: C. jejuni; assay: as above; format: cell-based, Campylobacter jejuni; set-up: key: A: Peptide aggregates; B: Less hyphal formation; Clumps; Diffuse clumps and small polyps; F: Diffuse growth; H: Thin; I: Growth inhibition; Microcolony formation; Rippled; Small polyps; Thick; W: Halo formation on top, microlonies on bottom; further: test concentration or dose not given here
[6] = tested on: microorganisms (e.g., bacteria, yeasts, fungi); assay: Targeting peptide binding to target microorganisms (Table 3); conditions: preferably 1x PBS
[7] = tested on: microorganisms; assay: Peptides having multiple activities (targeting/binding, antimicrobial, growth or phenotype altering)
From the text: In certain embodiments, peptides described herein can have multiple activities. Thus for example, a peptide can have both binding/targeting activity and antimicrobial activity. Such peptides can be used, e.g., in a chimeric construct, for any or all of these properties. Thus, for example, a peptide designated “B” in Table 8 can be used as a targeting peptide. If it is also designated G or M it can also be used for antimicrobial activity.

[8] = tested on: B. subtilis; assay: Kill or inhibit growth/proliferation; morphology, biofilm and growth disruption (Tables 5, 6); format: cell-based, Bacillus subtilis; set-up: key: A: Peptide aggregates; B: Less hyphal formation; Clumps; Diffuse clumps and small polyps; F: Diffuse growth; H: Thin; I: Growth inhibition; Microcolony formation; Rippled; Small polyps; Thick; W: Halo formation on top, microlonies on bottom; further: test concentration or dose not given here
[9] = tested on: S. epidermidis; assay: as above; format: cell-based, Staphylococcus epidermidis; set-up: key: A: Peptide aggregates; B: Less hyphal formation; Clumps; Diffuse clumps and small polyps; F: Diffuse growth; H: Thin; I: Growth inhibition; Microcolony formation; Rippled; Small polyps; Thick; W: Halo formation on top, microlonies on bottom; further: test concentration or dose not given here
[10] = microorganism(s) the targeting peptide binds, peptide binding conducted in aqueous buffers varied by peptide solubility
[11] = microorganism the targeting peptide binds, binding in aqueous buffers varied by peptide solubility

## PF-567: peptide having multiple activities (chain 1 QQRVKAVDASLSQVSTQVSGAVASA; chain 2 QQRVKAVDASLSQVSTQVSGAVASA; Peptide with targeting and/or antimicrobial activity)
[1]
  Organism, effect: C. jeikeium (C)
[2]
  Organism, effect: M. luteus (C)
[3]
  Organism, effect: MRSA (D)
[4]
  Organism, effect: S. pneumoniae (D)
[5]
  Organism, effect: C. jejuni (D)
[6]; [10]
  Target(s): S. epidermidis and P. aeruginosa and C. albicans and MRSA and S. pneumoniae and C. jeikeium
[7]
  Activities: G B

## PF-670 (chain 1 TVIVAPMHSGV; chain 2 TVIVAPMHSGV; Peptide with targeting and/or antimicrobial activity)
[8]
  Organism, effect (morphology, biofilm and growth disruption): B. subtilis (H)
[4]
  Organism, effect (morphology, biofilm and growth disruption): S. pneumoniae (H)

## PF-070: peptide having multiple activities (SMVKSEIVDLLNGEDNDD; Peptide with targeting and/or antimicrobial activity)
[8]
  Organism, effect: B. subtilis (D)
[6]; [11]
  Target(s): S. epidermidis; also recorded: C. jejuni
[7]
  Activities: G B

## PF-303 (EYPWSWISEPWPWDKSFYK; Peptide with targeting and/or antimicrobial activity)
[8]
  Organism, effect: B. subtilis (C)

## PF-010: peptide having multiple activities (chain 1 MDIDVNKLLQAFVYFKSFEKLRHNNS; chain 2 MDIDVNKLLQAFVYFKSFEKLRHNNS; Peptide with targeting and/or antimicrobial activity)
[1]
  Organism, effect: C. jeikeium (A)
[2]
  Organism, effect: M. luteus (A)
[3]
  Organism, effect: MRSA (R)
[9]
  Organism, effect: S. epidermidis (S)
[6]; [11]
  Target(s): S. epidermidis; also recorded: M. luteus; also recorded: E. coli; also recorded: C. albicans
[7]
  Activities: G B

## PF-306: peptide having multiple activities (GCILPHKKDNYNYIMSKFQDLVKITSKK; Peptide with targeting and/or antimicrobial activity)
[8]
  Organism, effect: B. subtilis (C)
[6]; microorganism(s) the targeting peptide binds, binding in aqueous buffers depending on peptide solubility
  Target(s): C. difficile
[7]
  Activities: G B

## PF-557: peptide having multiple activities (chain 1 AANKAREQAAAEAKRKAEEQAR; chain 2 AANKAREQAAAEAKRKAEEQAR; Peptide with targeting and/or antimicrobial activity)
[8]
  Organism, effect: B. subtilis (D)
[6]; [10]
  Target(s): S. pneumoniae
[7]
  Activities: G B

## PF-021: peptide having multiple activities (chain 1 FSLNFSKQKYVTVN; chain 2 FSLNFSKQKYVTVN; Peptide with targeting and/or antimicrobial activity)
[1]
  Organism, effect: C. jeikeium (R)
[2]
  Organism, effect: M. luteus (A)
[3]
  Organism, effect: MRSA (R)
[9]
  Organism, effect: S. epidermidis (A)
[6]; [11]
  Target(s): S. epidermidis; also recorded: M. luteus; also recorded: P. mirabilis; also recorded: E. coli; also recorded: C. albicans; also recorded: E. faecalis; also recorded: C. jeikeium
[7]
  Activities: G B

## PF-571 (SDLLYYPNENREDSPAGVVKEVKE; Peptide with targeting and/or antimicrobial activity)
[8]
  Organism, effect: B. subtilis (D)

## PF-043: peptide having multiple activities (chain 1 MIKNETAYQMNELLVIRSAYAK; chain 2 MIKNETAYQMNELLVIRSAYAK; Peptide with targeting and/or antimicrobial activity)
[1]
  Organism, effect: C. jeikeium (A)
[2]
  Organism, effect: M. luteus (C)
[3]
  Organism, effect: MRSA (R)
[9]
  Organism, effect: S. epidermidis (D)
[6]; [11]
  Target(s): M. luteus; also recorded: C. jejuni
[7]
  Activities: G B

## PF-574 (LVKSGKLESPYEHSEHLTLSQEKGLE; Peptide with targeting and/or antimicrobial activity)
[8]
  Organism, effect: B. subtilis (D)

## PF-572: peptide having multiple activities (chain 1 WRASKGLPGFKAG; chain 2 WRASKGLPGFKAG; Peptide with targeting and/or antimicrobial activity)
[8]
  Organism, effect: B. subtilis (D)
[4]
  Organism, effect: S. pneumoniae (R)
[6]; [10]
  Target(s): S. epidermidis; also recorded: M. luteus; also recorded: E. coli; also recorded: S. pneumoniae; also recorded: C. jeikeium
[7]
  Activities: G B

## PF-569: peptide having multiple activities (chain 1 KSKISEYTEKEFLEFVEDIYTNNK; chain 2 KSKISEYTEKEFLEFVEDIYTNNK; Peptide with targeting and/or antimicrobial activity)
[8]
  Organism, effect: B. subtilis (D)
[6]; [10]
  Target(s): M. luteus; also recorded: P. mirabilis; also recorded: S. pneumoniae; also recorded: E. faecalis; also recorded: C. jeikeium
[7]
  Activities: G B

## PF-552: peptide having multiple activities (chain 1 ELDKADAALGPAKNLAPLDVINRS; chain 2 ELDKADAALGPAKNLAPLDVINRS; Peptide with targeting and/or antimicrobial activity)
[8]
  Organism, effect: B. subtilis (D)
[6]; [10]
  Target(s): S. pneumoniae
[7]
  Activities: G B

## PF-561 (ESLEADVQAELDTEAAKYPALPASF; Peptide with targeting and/or antimicrobial activity)
[8]
  Organism, effect: B. subtilis (D)
[3]
  Organism, effect: MRSA (M)

## PF-002: peptide having multiple activities (chain 1 NDDAQ; chain 2 NDDAQ; Peptide with targeting and/or antimicrobial activity)
[8]
  Organism, effect: B. subtilis (R)
[4]
  Organism, effect: S. pneumoniae (H)
[6]; [11]
  Target(s): S. epidermidis; also recorded: P. mirabilis; also recorded: C. albicans; also recorded: C. jeikeium; also recorded: C. jejuni
[7]
  Activities: G B

## LIQKGLNQTFIVVIRLNNFIKKS [PF-013]
[1]
  Organism, effect: C. jeikeium (D)
[2]
  Organism, effect: M. luteus (D)
[3]
  Organism, effect: MRSA (R)
[9]
  Organism, effect: S. epidermidis (C)
[6]; [11]
  Target(s): M. luteus and P. mirabilis and E. coli and P. aeruginosa and MRSA and S. pneumoniae and C. jeikeium and C. jejuni
[7]
  Activities: G B

## PF-554: peptide having multiple activities (chain 1 AKNFLTRTAEEIGEQAVREGNINGP; chain 2 AKNFLTRTAEEIGEQAVREGNINGP; Peptide with targeting and/or antimicrobial activity)
[8]
  Organism, effect: B. subtilis (D)
[6]; [10]
  Target(s): S. pneumoniae
[7]
  Activities: G B

## PF-550: peptide having multiple activities (chain 1 STENGWQEFESYADVGVDPRRYVPL; chain 2 STENGWQEFESYADVGVDPRRYVPL; Peptide with targeting and/or antimicrobial activity)
[8]
  Organism, effect: B. subtilis (D)
[6]; [10]
  Target(s): S. pneumoniae
[7]
  Activities: G B

## PF-036: peptide having multiple activities (chain 1 ILNRLSRIVSNEVTSLIYSLK; chain 2 ILNRLSRIVSNEVTSLIYSLK; Peptide with targeting and/or antimicrobial activity)
[1]
  Organism, effect: C. jeikeium (A)
[2]
  Organism, effect: M. luteus (A)
[3]
  Organism, effect: MRSA (R)
[9]
  Organism, effect: S. epidermidis (S)
[6]; [11]
  Target(s): S. epidermidis and M. luteus and P. mirabilis and E. coli and C. albicans and MRSA and S. pneumoniae and C. jejuni
[7]
  Activities: G B

## PF-565 (RAEAEAQRQAEADAKRKAEEAARL; Peptide with targeting and/or antimicrobial activity)
[8]
  Organism, effect: B. subtilis (D)
[3]
  Organism, effect: MRSA (C)
